2 compounds from patent US20180228815A1, “NARINGENIN AND ASIATIC ACID COMBINATION TREATMENT OF CANCERS” (The Chinese University of Hong Kong, priority 2016, published 2018) can be followed below.

Data set [1] concerns Id2, IRF2. Put plainly: Id2 and IRF2 expression in bone marrow-derived NK cells with TGF-β1 (real-time PCR, western blot). The class given is cell-based, mouse. Particulars: bone marrow-derived NK cells in vitro. The method, then:
After euthanasia, bone marrow cells were isolated from C57BL/6 mice following the protocol as previously described (10). Bone marrow cells were then seeded at the density of 1×10^6 cells/ml in MEMα medium (Gibco, Thermo Fisher Scientific Inc., MA, USA) containing 10% FBS supplemented with 1 ng/ml IL-7, 10 ng/ml Flt3L, 30 ng/ml SCF, 50 ng/ml IL-15 (Peprotech, NJ, USA) and […] β-Mercaptoethanol (Gibco, Thermo Fisher Scientific Inc., MA, USA) and cultured for 4 days. Then transferred cells to MEMα medium containing 10% FBS supplemented with 50 ng/ml IL-15, 20 ng/ml IL-2 and […] β-Mercaptoethanol to induce NK cells maturation for another 3 days. […] Tumor tissues and cultured NK cells were lysed with ice-cold RIPA buffer, and then protein was isolated as previously described (2 6). Membranes were blocked with 5% BSA in PBS for 1 hour at room temperature before incubated with primary antibodies against Smad7, Id2, β-actin (Santa Cruz Biotechnology, Santa Cruz, Calif., USA), p-Smad3 and IRF2 (Cell signaling, MA, USA) overnight at 4° C., subsequently incubated with IRDye 800-conjugated secondary antibodies (Rockland immunochemicals, PA, USA). Target protein expression was then detected by LiCor/Odyssey infrared image system (LI-COR Biosciences, NE, USA) and analyzed with Image J software (NIH, Bethesda, Md., USA).
For orientation: Quantitative PCR measures a nucleic acid by following its amplification.

Data set [2] relates to B16F10 melanoma. Put plainly: B16F10 melanoma syngeneic mouse tumor model, tumor growth. Format: in vivo. The settings on record: for tumor growth at higher dosages: dosages higher than 10 mg/kg AA or 50 mg/kg NG; for B16F10 melanoma volume and weight: monotherapy, different doses; for melanoma progression: single treatment, 10 mg/kg AA or 50 mg/kg NG. An excerpt: B16F10 melanoma syngeneic tumor model was generated in C57/Bl6 male mice (aged week 8 and 25 g body weight) via subcutaneous injection of 1×10^6 B16F10 cells. Lewis Lung Cancer syngeneic tumor model was also generated in C57/Bl6 male mice via subcutaneous injection of 2×10^6 luciferase-labeled LLC cells. When average tumor size reached 50 mm^3, mice were randomly divided into four groups respectively receiving drug administration as described below. Tumor progression was monitored by calculating tumor volume with vernier calipers as well as by bioluminescence imaging with IVIS Spectrum system (Xenogen, PerkinElmer, Inc., MA, USA). All animal experiments were carried out by a protocol approved by Animal Ethics Experimental Committee at the Chinese University of Hong Kong. Two TCM-based drugs were used in this study, including asiatic acid (95% HLPC-purified, Nanning, China) and naringenin (98% HLPC-purified, Xian, China). Both drugs were dissolved in DMSO and Tween-80 at the ratio of 9:1, which was further diluted 10 times with saline as working solution. […] Studies were carried out by a protocol approved by Animal Ethics Experimental Committee at the Chinese University of Hong Kong.

Data set [3] concerns bone marrow-derived NK cells. Kind of data set: Flow cytometry of bone marrow-derived NK cell differentiation (NK1.1+ CD122+). Format: cell-based, mouse. Particulars: TGF-β1 (5 ng/ml). The method, then: FIGS. 15A-15B. Combination of AA and NG attenuates TGF-β1 induced inhibition on NK cell differentiation. […] (FIG. 15B) Flow cytometry detects that the effect of AA, NG, and their combination on bone marrow-derived NK differentiation in response to TGF-β1 (5 ng/ml). Each error bar represents the mean±SEM for groups of three independent experiments. *** p<0.001 compared to TGF-β1; ### p<0.001 as indicated.
After euthanasia, bone marrow cells were isolated from C57BL/6 mice following the protocol as previously described (10). Bone marrow cells were then seeded at the density of 1×10^6 cells/ml in MEMα medium (Gibco, Thermo Fisher Scientific Inc., MA, USA) containing 10% FBS supplemented with 1 ng/ml IL-7, 10 ng/ml Flt3L, 30 ng/ml SCF, 50 ng/ml IL-15 (Peprotech, NJ, USA) and […] β-Mercaptoethanol (Gibco, Thermo Fisher Scientific Inc., MA, USA) and cultured for 4 days. Then transferred cells to MEMα medium containing 10% FBS supplemented with 50 ng/ml IL-15, 20 ng/ml IL-2 and […] β-Mercaptoethanol to induce NK cells maturation for another 3 days.
Peripheral blood NK cells and cultured NK cells were analyzed using various markers as previously described (10), including rat anti-mouse CD16/CD32 antibody (BD Pharmingen, BD Biosciences, CA, USA), APC-conjugated anti-mouse NK1.1, PE-conjugated anti-mouse NKp46, PE-conjugated anti-mouse CD122 (eBioscience Inc., CA, USA) and Alexa 488-conjugated anti-mouse/human CD11b Antibody (Biolegend, CA, USA). After immunostaining, cells were resuspended with 200 μl staining buffer and analyzed with BD Accuri™ C6 Cytometer (BD Biosciences, CA, USA).

The test system of data set [4] is B16F10 tumor cells. Put plainly: TGF-beta1-induced VEGF mRNA expression by tumor cells (real-time PCR). Format: cell-based.
The nature of data set [5]: Systemic toxicity in B16F10 melanoma-bearing mice. Particulars: mouse, in vivo. The text has this:
FIG. 5. […] Each bar represents the mean±SEM for groups of 6 mice.

The format of data set [6] is in vivo. The method, then: FIG. 1. Determination of a safe dosage of AA or NG in normal mice. Groups of 4 normal mice were treated with different dosages of asiatic acid (AA) or naringenin (NG) for two weeks and various parameters were measured to determine a safe dosage for the use as therapeutic dose in cancer-bearing mice. As indicated by a highlighted box, AA at 10 mg/kg and NG at 50 mg/kg was selected. Each bar represents the mean±SEM for groups of 4 mice. * p<0.05, ** p<0.01 compared to untreated mice (BLK)
A safe dosage of HLPC-purified naringenin (NG) and asiatic acid (AA) was first determined in normal mice by peritoneal injection with different dosages of AA or NG for toxicity assays and a dose of AA at 10 mg/kg body weight and NG at 50 mg//Kg body weight is selected for further examination of the therapeutic efficacy on cancer (FIG. 1). The effects of combined use of a safe dosage of naringenin (NG, 10 mg/kg) and asiatic acid (AA, 50 mg/kg) at a ratio of […] was selected and the therapeutic effect on cancer was tested in two syngeneic mouse models of invasive lung carcinoma (LLC) and melanoma (B16F10). […] Thus, the combination of NG and AA presents as a new emerging and promising therapy for tumor.

Like-named read-outs stand apart in the source and are kept apart here.

Regarding `C[C@H]1[C@H](C)CC[C@]2(C(=O)O)CC[C@]3(C)C(=CC[C@@H]4[C@@]5(C)C[C@@H](O)[C@H](O)[C@@](C)(CO)[C@@H]5CC[C@]43C)[C@H]12` [AA, Asiatic acid], in data set [1], the “TGF-β1-induced suppression of IRF2” value is listed as “significantly reduced” and the “TGF-β1-induced suppression of Id2” value is on record as “significantly reduced”. Further, in data set [2], the “tumor growth at higher dosages” value is “no further significant improvement”; the “B16F10 melanoma volume and weight” value is given as “Dose-dependent inhibitory effect”; the melanoma progression result is “effectively inhibited”. Further, in data set [3], the “inhibitory effect of TGF-β1 on NK cell development (NK1.1+ CD122+)” value is on record as “moderately attenuated”. Further, the “TGF-beta1-induced angiogenesis (VEGF mRNA expression)” value in data set [4] (B16F10 cultured with TGF-beta1 (2 ng/ml), AA at luM) is listed as “significantly inhibit”. Moreover, in data set [5], the “systemic toxicity (peripheral white blood cell counts, serum LDH, AST and ALT, creatinine)” value is recorded as “do not cause systemic toxicity”. Besides, in data set [6] (mouse, in vivo, 2 weeks), the “safe dosage selected for use as therapeutic dose” value was 10 mg/kg.
For the compound `O=C1CC(c2ccc(O)cc2)Oc2cc(O)cc(O)c21` (stereo not drawn) [NG, 5,7-dihydroxy-2-(4-hydroxyphenyl)chroman-4-one], in data set [1], the “TGF-β1-induced suppression of IRF2” value is reported as “significantly reduced” and the “TGF-β1-induced suppression of Id2” value was “significantly reduced”. In data set [2], the “tumor growth at higher dosages” value is “no further significant improvement”; the “B16F10 melanoma volume and weight” value is recorded as “Dose-dependent inhibitory effect”; the melanoma progression result is on record as “effectively inhibited”. Further, the “inhibitory effect of TGF-β1 on NK cell development (NK1.1+ CD122+)” value in data set [3] is recorded as “moderately attenuated”. Besides, in data set [4] (B16F10 with TGF-beta1 (2 ng/ml), NG from 0.5 to 250 uM added to AA at luM), the “TGF-beta1-induced angiogenesis (VEGF mRNA expression), inhibition by AA with NG added” value is recorded as “enhanced”. For the same compound, in data set [5], the “systemic toxicity (peripheral white blood cell counts, serum LDH, AST and ALT, creatinine)” value was “do not cause systemic toxicity”. The “safe dosage selected for use as therapeutic dose” value in data set [6] (normal mice treated for two weeks, groups of 4) is recorded as 50 mg/kg.
